Experimental data reported in US7378445B2, “Treatment of prostate cancer” (Peplin Research Pty. Ltd., priority 2000, dated 2008).

Key:
Type in all cases: cell-based
[1] = tested on: DU145 prostate cancer cells; assay: Combination with chemotherapeutic agents, cytotoxicity (3H-thymidine incorporation); details: 24 hr treatment, then five days growth; for cytotoxicity of combination with cisplatin compared to additive cytotoxicity: FIGS. 6A, 6B, 6E; for cytotoxicity of combination with SBHA compared to additive cytotoxicity: FIGS. 6C, 6D
Experimental: The prostate cancer cells were treated with (A) PEP006 and cisplatin, (B) PEP008 and cisplatin, (C) PEP005 and SBHA, (D) PEP008 and SBHA and (E) PEP005 and cisplatin for 24 hr after which the medium was changed and the cells permitted to grow in the presence of ^3H-thymidine for five days. The percentage cell survival was determined by measuring the incorporation of ^3H-thymidine in the cells.

[2] = tested on: neonatal foreskin fibroblasts; assay: Killing by untreated leukocytes of drug-pretreated normal cells ([3H]-thymidine); details: target cells pretreated with 60 ng/mL for 20 hr, washed; 48 hr with human leukocytes; 100:1 ratio of effector:target cells
Experimental: (§1) The question of whether drug treatment of the target tumor cells causes them to become susceptible to effector cells of the immune system was addressed as follows.
(§2) Leukocytes obtained by lysis of human peripheral blood were added to 5000 MM96L human melanoma cells or 7000 neonatal foreskin fibroblasts per microtitre well at effector: target ratios of 1000, 100 and 10:1. The target cells had been treated with 60 ng/mL PEP008 for 20 hr beforehand, and washed and the medium replaced before the leukocytes were added. After 48 hr incubation with the leukocytes the cultures were washed and labelled with [3H]-thymidine for 2 hr. […] Untreated leukocytes had no effect on cell survival.

[3] = tested on: MM96L human melanoma cells; assay: Killing by untreated leukocytes of drug-pretreated tumor cells ([3H]-thymidine); details: target cells pretreated with 60 ng/mL for 20 hr, washed; 48 hr with human leukocytes; 100:1 ratio of effector:target cells
Experimental: as §1, §2

SMILES | cytotoxicity of combination with cisplatin compared to additive cytotoxicity [1] | cytotoxicity of combination with SBHA compared to additive cytotoxicity [1] | survival of normal fibroblasts [2] [%] | survival of melanoma cells [3] [%]
C/C=C(/C)C(=O)O[C@H]1C(C)=C[C@]23C(=O)[C@@H](C=C(CO)[C@@H](O)[C@]12O)[C@H]1[C@@H](C[C@H]3C)C1(C)C [PEP005, Ingenol-3-angelate] | synergistic combinations | synergistic combinations | – | –
C/C=C(/C)C(=O)O[C@H]1C(C)=C[C@]23C(=O)[C@H](C=C(C)[C@@H](O)[C@]12O)[C@H]1[C@@H](C[C@H]3C)C1(C)C [PEP006, 20-deoxy-Ingenol-3-angelate] | synergistic combinations | – | – | –
C/C=C(/C)C(=O)O[C@H]1C(C)=C[C@]23C(=O)[C@@H](C=C(COC(C)=O)[C@@H](O)[C@]12O)[C@H]1[C@@H](C[C@H]3C)C1(C)C [PEP008, 20-O-acetyl-ingenol-3-angelate] | synergistic combinations | synergistic combinations | 100 | 12
